Laboratory results as given in patent US8754047B2, “Peptide compositions and methods of use” (The Research Foundation for the State University of New York, priority 2008, dated 2014).
Positions of bridges follow the written chain, without caps; N, C: chain ends. Residues, ends and D or L forms follow the SMILES beside them.

How the values were obtained:
[1] = tested on: SW480 human colon cancer cells; test: In vitro cell viability assay by MTT / cell Titer-Glo, SW480
Method: (§1) 10,000 HT29 or SW480 human colon cancer cells, BxPC-3 human pancreatic cancer cells, and MCF7 and MDA-MB-231 breast cancer cells were obtained from American Type Culture Collection (ATTC), Manassas, Va., and were seeded in separate 96-well plates. After treatment with various concentrations (6.25 μM, 12.5 μM, 25 μM, 50 μM, 100 μM, or 200 μM) of test peptide for 24 h, cells were stained with MTT (3-(4,5-Dimethyl-2-thiazolyl)-2,5-diphenyl-2H-tetrazolium bromide, from Sigma-Aldrich) following the instructions of the manufacturer. Before dissolving MTT in SDS, the HT29 and SW480 cells were photographed using a digital camera connected with a phase-contrast microscope. (FIG. 2A1-8, and FIG. 2B1-6). Cells that are alive convert MTT into formazan in their active mitochondria and appear dark purple; dead cells are not stained by MTT and appear colorless.
(§2) The IC50 is the concentration of the test agent that inhibits cell growth by 50% at 24 hours of exposure. IC50s were determined using the MTT assay or using the cell Titer-Glo method and following the instructions of the manufacturer ([…]). […] (Sun, Y., and Rigas, B., (2008), Cancer Res., 68(20): 8269-8277).
The effect of peptide YJB02 on SW480 colon cancer cells was compared to the effect of peptide YJB02 on the normal human colon epithelial cell line NCM460. […] The viability was determined as described in Example 2.

[2] = tested on: BxPC-3 human pancreatic cancer cells; conditions: read-out: IC50s, BxPC3; inhibits cell growth by 50% at 24 hours of exposure; MTT or cell Titer-Glo
Method: as §1, §2

[3] = tested on: MCF7 breast cancer cells; conditions: read-out: IC50s, MCF7; inhibits cell growth by 50% at 24 hours of exposure; MTT or cell Titer-Glo
Method: as §1, §2

[4] = tested on: MDA-MB-231 breast cancer cells; conditions: read-out: IC50s, MDA-MB-231; inhibits cell growth by 50% at 24 hours of exposure; MTT or cell Titer-Glo
Method: as §1, §2

[5] = tested on: SW480 human colon cancer xenografts; test: SW480 human colon cancer xenografts in nude mice, tumor volume; assay type: in vivo; conditions: 500 μg/day intraperitoneally for 19 days
Method: (§3) Xenografts were generated as described in FIG. 3A-B and Example 3 except where noted. Each animal had two xenografts, one on its right flank and one on the left. In these studies, the effect of two doses of YJB01, 100 μg and 500 μg per animal were evaluated. The doses were administrated intraperitoneally once a day dissolved in phosphate buffered saline (PBS). Control animals were injected with PBS. Tumor volume was determined as described in Example 3. Tumor volume is expressed as mean±SEM.
as §3, with “the” for “FIG. 3A-B and”
Xenografts were generated as described in the Example 3 except that 8 Balb/c nude mice in each group were used in this experiment. Nude mice bearing SW480 xenografts were treated with 500 μg/day of YJB02 for 19 days. The doses were administrated intraperitoneally once a day dissolved in phosphate buffered saline (PBS). Control animals were treated with PBS.
Tumor volume was determined as described in Example 3. Tumor volume was monitored and graphed as set forth in FIG. 9A, and is expressed as mean±SEM.

[6] = tested on: SW480 tumor cells; test: TUNEL staining of xenograft tumor tissue for apoptosis; assay type: in vivo, nude mice; conditions: tumors of mice treated 500 μg/day for 19 days
Method: (§4) Tumor tissue from the mice treated with PBS or YJB02 as described in Example 8 were utilized in this experiment. Cell death was determined by terminal deoxynucleotidyl transferase dUTP nick end labeling (TUNEL) staining sections of paraffin embedded tissues, as previously described (Ouyang, N., Williams, J. L., Tsioulias, G. J., Gao, J., Iatropoulos, M. J., Kopelovich, L., Kashfi, K., and Rigas, B. 2006. Nitric oxide-donating aspirin prevents pancreatic cancer in a hamster tumor model. Cancer Res 66:4503-4511). Cell proliferation was determined by staining sections of paraffin embedded tissues for Ki-67 (Santa Cruz Biotechnology, Calif.) as previously described (Id.)
Slides were stained with TUNEL kit for apoptosis (available from Roche Applied Science, Indianapolis, Ind., US).

[7] = tested on: SW480 tumor cells; test: Ki-67 staining of xenograft tumor tissue for cell proliferation; assay type: in vivo, nude mice; conditions: tumors of mice treated 500 μg/day for 19 days
Method: as §4
Tissue slides from control or YJB02 treated tumors were stained with anti-Ki67 antibody (Santa Cruz Biotechnology, Santa Cruz, Calif., US). As shown in the lower panel of FIG. 10, YJB02 inhibited tumor cell proliferation. […] Slides were counter-stained with hematoxylin.

[8] = biological target: T1, thioredoxin reductase (Rattus norvegicus, UniProt O89049)
T1 sequence (O89049 1-499): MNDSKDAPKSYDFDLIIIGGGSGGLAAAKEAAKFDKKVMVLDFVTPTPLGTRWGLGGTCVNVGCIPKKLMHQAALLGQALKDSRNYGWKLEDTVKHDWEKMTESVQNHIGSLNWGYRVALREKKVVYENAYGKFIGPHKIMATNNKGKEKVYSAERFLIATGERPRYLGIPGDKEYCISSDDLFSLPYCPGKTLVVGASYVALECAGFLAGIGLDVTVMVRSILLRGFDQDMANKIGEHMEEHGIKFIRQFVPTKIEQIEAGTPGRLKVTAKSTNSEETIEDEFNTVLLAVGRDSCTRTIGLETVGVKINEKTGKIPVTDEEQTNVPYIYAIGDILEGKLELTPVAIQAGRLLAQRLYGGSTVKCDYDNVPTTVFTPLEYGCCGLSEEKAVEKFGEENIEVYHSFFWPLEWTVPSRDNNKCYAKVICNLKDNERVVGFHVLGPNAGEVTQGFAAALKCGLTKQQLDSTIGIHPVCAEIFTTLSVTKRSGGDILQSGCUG
Method: (§5) The activity was determined based on the change in absorbance (ΔA412) per minute (ΔA412/min).

[9] = in vitro; conditions: human, NCM460 normal colon epithelial cells
Method: After treatment with various concentrations (6.25 μM, 12.5 μM, 25 μM, 50 μM, 100 μM, or 200 μM) of test peptide for 24 h, cells were stained with MTT (3-(4,5-Dimethyl-2-thiazolyl)-2,5-diphenyl-2H-tetrazolium bromide, from Sigma-Aldrich) following the instructions of the manufacturer. […] Cells that are alive convert MTT into formazan in their active mitochondria and appear dark purple; dead cells are not stained by MTT and appear colorless.

[10] = biological target: T1, thioredoxin reductase; test: biochemical
Method: as §5

In the case of `CC[C@H](C)[C@H](NC(=O)[C@H](CCCCN)NC(=O)[C@@H](NC(=O)[C@H](CCC(N)=O)NC(=O)[C@H](CCCNC(=N)N)NC(=O)[C@@H]1CCCN1C(=O)[C@@H](NC(=O)[C@@H]1CSSC[C@H](NC(=O)[C@@H](NC(=O)CN)[C@@H](C)O)C(=O)N[C@@H](C(C)C)C(=O)N[C@@H](CC(N)=O)C(=O)N[C@@H](C(C)C)C(=O)NCC(=O)N1)[C@@H](C)CC)[C@@H](C)CC)C(=O)N[C@@H](Cc1c[nH]c2ccccc12)C(=O)N[C@@H](Cc1ccccc1)C(=O)N[C@@H](CCC(N)=O)C(=O)N[C@@H](CC(N)=O)C(=O)N[C@@H](CCCNC(=N)N)C(=O)N[C@@H](CCCNC(=N)N)C(=O)N[C@@H](CCSC)C(=O)N[C@@H](CCCCN)C(=O)N[C@@H](Cc1c[nH]c2ccccc12)C(=O)N[C@@H](CCCCN)C(=O)N[C@@H](CCCCN)C(=O)O` [YJB02] (H-GTCVNVGCIPRQIKIWFQNRRMKWKK-OH; disulfide 3-8; N-terminus and C-terminus assumed), the “SW480 cells remained viable” value ([1]; 200 μmol/L, 24-hour treatment) is reported as 20%, the IC50 ([1]; read-out: IC50s, SW480, inhibits cell growth by 50% at 24 hours of exposure, MTT or cell Titer-Glo) is reported as under 12.5 µM and the IC50 [2] is reported as 36 to 76 µM. It also gave an IC50 [3] of 213 µM, an IC50 [4] of 243 µM and a tumor volume ([5]; day 19, control 635 mm^3) of 207 mm^3. For the same compound, the “reduction in SW480 tumor growth” value ([5]; vs control) was 67%, the “TUNEL (+) cells in tumor tissue” value [6] was “induced more TUNEL (+) cells than control tumors” and the “Ki67 (+) signals in tumor tissue” value [7] was “dramatically decreased”. The “thioredoxin reductase activity, ΔA412/min” value [8] was “decreased by YJB02 in a dose dependent manner”, the viability at 24 h, 200 μmol/L [9] was 75% and the IC50 [10] was 0.036 µM.
